Source: article PMC7617869, “Molecular glues that inhibit deubiquitylase activity and inflammatory signaling” (Nature Structural & Molecular Biology, 2025)
“And” between values parts separate entries of the source, which are not always exact repeats. Equal values may be shown once.

How the values were obtained:
THP-1 cells = assay: THP-1 live cell percentage; format: cell-based; conditions: THP-1, hIFNα2 25 ng/mL, 4 μM compound, 16 h
Procedure: THP-1 in vitro experiments
THP-1-DualTM cells (InvivoGen), derived from a human monocytic cell line, isolated from a patient with acute monocytic leukaemia, were cultured as per manufacturer’s guidance. Cells were seeded at 1x10^6 cells/mL in RPMI1640 media containing 10% fetal bovine serum (FBS), 1% penicillin-streptomycin (PS) (Gibco Laboratories) with DMSO (0.1%) (control) or in media containing JMS-175- […]
ng/mL) (Merck Life Science), ODN 2216 (1 µM) (Miltenyi Biotec), or Poly:IC (1 µg/mL) (InvivoGen).
Tofacitinib (Cambridge Biosciences) at 0.4 µM was used for comparison against a known JAK inhibitor.
Cells were centrifuged at 300 g for 5 minutes. Supernatant was removed and subjected to simultaneous study of the NF -κB pathway, by monitoring the activity of secreted alkaline phosphatase reporter (SEAP), and the IRF pathway, by assessing the activity o f a secreted Lucia luciferase using QUANTI - Blue ™ Solution and QUANTI -Luc™ 4 Lucia/Gaussia (InvivoGen), respectively, as per manufacturer’s instructions. Pelleted cells were used for FACS analysis using IFNα/β R1 APC-conjugated antibody or isotype control (Biotechne, FAB245A and IC002A), or unstained staining procedure with and without Zombie GreenTM (Biolegend). Samples were analysed using CytoFlex LX (Beckman) (50,000 live cells per condition). Median fluorescence intensity for APC channel gated on single cell live cells was analysed and compared as a percentage to control (no stimulation condition). […]

[1] = system: CXCL10 secretion in SSc PBMCs; assay: SSc PBMC CXCL10 ELISA, unstimulated; format: cell-based, human
Procedure: (§1) PBMCs in vitro experiments
(§2) Peripheral blood mononuclear cells (PBMCs) from healthy and SSc donors were separated using density gradient method (Leucosep™, Greiner Bio-One International) from EDTA anticoagulated peripheral blood; isolated cells were washed twice by PBS. PBMCs were then incubated in RPMI1640 […]
For healthy PBMCs, cells were stimulated with 20 ng/mL of IFN (+/- compounds or DMSO). For SSc PBMCs, cells were in basal conditions with no additional IFN stimulation. Cells were centrifuged at 300 g for 10 minutes. Supernatant was removed and subjected to R&D Systems DY266 Human CXCL10/IP-10 DuoSet ELISA (Biotechne) in duplicates, according to manufacturer’s guidance. Concentration of CXCL10 was determined according to a 4-parameter

[2] = system: ISG expression in SSc PBMCs; assay: SSc PBMC type I IFN signaling gene expression array, unstimulated; format: cell-based, human
Procedure: as §1, §2
(§3) For healthy PBMCs, cells were stimulated with 20 ng/mL of IFN (+/- compounds or DMSO). For SSc PBMCs, cells were in basal conditions with no additional IFN stimulation. Cells were centrifuged at 300 g for 10 minutes. […]
(§4) RNA was extracted from cell pellets using TRIzol™ (ThermoFisher
(§5) Scientific, Waltham, MA) and processed using Quick-RNA Miniprep Kit (Zymo Research) as per the manufacturer’s instruction.
(§6) For Type I IFN signalling analysis, the human IFN I RT2 Profiler PCR Array (Qiagen, PAMM-016ZE) was performed on available RNA from healthy (n=3) and SSc (n=9) donors. RNA was converted to cDNA using RT2 First Strand Kit (Qiagen). Next, the cDNA was mixed with RT2 SYBR Green Mastermix (Qiagen, Venlo). Successful PCR performance was confirmed by assay tests for genomic DNA contamination, RNA sample quality, as well as single melt curve determination and <35 Ct for each gene, leading to validated gene expression of 67 genes. Relative expression for each gene was determined, firstly by ∆CT calculated using the geometric mean of 4 housekeeping genes (ACTB, GAPDH, HPRT1, RPLP0), followed by 2^(-∆CT), and expressed as fold change to control, according to manufacturer’s guidance. IFN2α-induced ISGs in healthy donors were determined using a Student’s t-test (two-tail distribution and equal variances) on the triplicate fold change in 2^(-ΔCT) values between […]
(§7) donors). Heatmaps were generated using the “pheatmap” function in R (v4.0.2) and RStudio (v1.3.1093) applying row scaling to standardise the expression data across samples (R core team 2020.
(§8) R Foundation for Statistical Computing). The IFN2α inducible genes determined in healthy donors […]
(§9) 171-C. To account for Type I IFN signalling heterogeneity across samples, the mean 2^(-∆CT) for each […]
(§10) relative gene expression, illustrated as a fold change and visualised in log2. The Type I IFN signalling array data for the patient samples is included in Source Data Figure 6, Extended Data Fig. 9.

[3] = system: composite ISG score in SSc PBMCs; assay: SSc PBMC composite ISG score (CXCL10, IFIT1, ISG15, MX1); format: cell-based, human
Procedure: as §1, §2, §3, §4, §5, §6, §7, §8, §9, §10

[4] = unstimulated PBMCs from SSc patients, one value per patient (P1-P9)
[5] = sheet Ext. 9e, SSc PBMCs, 20 values per compound (one per patient sample)

## O=C(NC1C2CNCC21)c1nn(C(=O)c2c(Cl)cccc2Cl)cc1NC(=O)c1c(Cl)cccc1Cl (stereo not shown) [FX-171-C]
THP-1 cells
  percentage of live cells: 97.99%
[1]; SSc donor ID 68
  CXCL10, SSc donor PBMCs (Fig. 6d): 72.6224
[1]; SSc donor ID 78
  CXCL10, SSc donor PBMCs (Fig. 6d): 6.824
[1]; SSc donor ID 79
  CXCL10, SSc donor PBMCs (Fig. 6d): 0
[1]; SSc donor ID 142
  CXCL10, SSc donor PBMCs (Fig. 6d): 86.6599
[1]; SSc donor ID 205
  CXCL10, SSc donor PBMCs (Fig. 6d): 108.154
[1]; SSc donor ID 219
  CXCL10, SSc donor PBMCs (Fig. 6d): 48.1818
[1]; SSc donor ID 244
  CXCL10, SSc donor PBMCs (Fig. 6d): 0
[1]; basal, nonstimulated SSc PBMCs, 16 h
  CXCL10 secretion: reduced CXCL10 secretion
[2]; SSc PBMCs (n = 9), 2 µM, 16 h, compared to AP-5-145
  ISG expression (in words): lesser effect
[2]; [4]
  ADAR, Type I IFN signalling array raw data: 3.858 and 4.274 and 4.001 and 4.68 and 4.777 and 4.208 and 3.331 and 4.913 and 3.918
  BST2, Type I IFN signalling array raw data: 3.573 and 2.8591 and 2.177 and 3.614 and 3.672 and 2.327 and 3.468 and 1.591 and 2.873
  CASP1, Type I IFN signalling array raw data: 2.548 and 2.002 and 1.941 and 1.134 and 2.888 and 1.296 and 2.046 and 2.574 and 1.867
  CD86, Type I IFN signalling array raw data: 6.165 and 2.65 and 5.65 and 3.485 and 4.729 and 3.419 and 6.169 and 4.499 and 4.78
  CXCL10, Type I IFN signalling array raw data: 5.471 and 2.917 and 2.582 and 4.742 and 4.877 and 6.905 and 4.483 and 4.8707 and 3.923
  DDX58, Type I IFN signalling array raw data: 3.35 and 3.309 and 2.1354 and 2.913 and 3.785 and 3.502 and 1.974 and 1.829 and 2.968
  GBP1, Type I IFN signalling array raw data: 2.688 and 1.367 and 1.422 and 2.895 and 1.583 and 2.086 and 0.7206 and 2.179 and 0.5673
  IFI6, Type I IFN signalling array raw data: 3.893 and 2.681 and 0.9581 and 2.49 and 3.897 and 2.026 and 3.3942 and 1.435 and 1.657
  IFI16, Type I IFN signalling array raw data: 1.765 and 1.775 and 1.077 and 1.992 and 2.377 and 1.622 and 1.064 and 1.533 and 1.821
  IFIH1, Type I IFN signalling array raw data: 4.423 and 3.6 and 2.511 and 3.468 and 5.097 and 3.98 and 3.849 and 3.949 and 3.417
  IFIT1, Type I IFN signalling array raw data: 4.29 and 4.385 and 1.626 and 3.83 and 6.5533 and 6.518 and 4.252 and 2.844 and 3.475
  IFIT2, Type I IFN signalling array raw data: 4.664 and 3.908 and 1.678 and 5.248 and 5.235 and 3.764 and 3.486 and 3.028 and 3.269
  IFIT3, Type I IFN signalling array raw data: 3.799 and 3.675 and 1.209 and 4.928 and 5.414 and 5.436 and 3.503 and 5.877 and 2.486
  IFITM1, Type I IFN signalling array raw data: 0.9488 and 1.1781 and 0.3954 and 0.8994 and 1.9714 and 0.8768 and 1.144 and 1.6293 and 0.7125
  IFITM2, Type I IFN signalling array raw data: 4.648 and 5.173 and 4.79 and 4.974 and 4.481 and 3.9861 and 4.845 and 5.367 and 4.762
  IFITM3, Type I IFN signalling array raw data: 3.968 and 3.916 and 1.59 and 3.568 and 4.151 and 2.877 and 3.902 and 1.131 and 2.5357
  IRF1, Type I IFN signalling array raw data: 2.547 and 1.821 and 1.073 and 2.335 and 1.158 and 0.9908 and 0.6649 and 1.927 and 1.207
  IRF7, Type I IFN signalling array raw data: 6.802 and 6.586 and 3.986 and 5.798 and 5.443 and 4.601 and 5.372 and 4.2831 and 3.547
  IRF9, Type I IFN signalling array raw data: 2.19 and 2.335 and 0.975 and 2.229 and 2.461 and 1.8963 and 1.69 and 1.214 and 1.521
  ISG15, Type I IFN signalling array raw data: 3.986 and 3.922 and 0.692 and 4.262 and 5.477 and 7.495 and 2.508 and 1.711 and 2.311
  ISG20, Type I IFN signalling array raw data: 2.62 and 3.224 and 2.385 and 3.3 and 3.623 and 2.618 and 2.595 and 4.036 and 2.585
  MX1, Type I IFN signalling array raw data: 3.107 and 4.405 and 1.261 and 5.21 and 5.062 and 3.692 and 3.866 and 4.591 and 2.854
  MX2, Type I IFN signalling array raw data: 4.125 and 4.0818 and 1.607 and 3.741 and 5.0213 and 4.032 and 3.318 and 2.653 and 2.691
  MYD88, Type I IFN signalling array raw data: 3.738 and 3.075 and 2.51 and 2.925 and 2.927 and 2.376 and 3.074 and 1.908 and 3.454
  NMI, Type I IFN signalling array raw data: 2.143 and 1.85 and 1.491 and 1.973 and 3.716 and 1.264 and 1.346 and 2.497 and 2.32
  OAS1, Type I IFN signalling array raw data: 4.424 and 3.836 and 1.737 and 5.327 and 4.793 and 3.413 and 3.498 and 2.187 and 2.863
  OAS2, Type I IFN signalling array raw data: 4.608 and 3.615 and 1.642 and 3.798 and 4.119 and 3.655 and 2.504 and 2.941 and 2.821
  PML, Type I IFN signalling array raw data: 4.552 and 5.075 and 2.988 and 4.3611 and 4.177 and 3.436 and 3.3349 and 3.807 and 3.407
  SOCS1, Type I IFN signalling array raw data: 3.578 and 4.266 and 3.582 and 3.8466 and 3.6323 and 2.7 and 3.416 and 2.793 and 2.573
  STAT1, Type I IFN signalling array raw data: 0.977 and -0.7577 and -0.7275 and 0.7898 and -0.2011 and 0.5637 and -1.166 and 0.2201 and -0.8389
  STAT2, Type I IFN signalling array raw data: 3.968 and 3.159 and 2.8038 and 5.573 and 3.712 and 3.001 and 2.882 and 3.307 and 2.683
  STAT3, Type I IFN signalling array raw data: 6.676 and 4.39 and 1.897 and 3.494 and 2.053 and 1.773 and 1.353 and 3.435 and 1.673
  TAP1, Type I IFN signalling array raw data: 2.3591 and 1.9257 and 1.563 and 2.7124 and 1.578 and 1.336 and 0.8182 and 1.844 and 1.137
  TNFSF10, Type I IFN signalling array raw data: 3.902 and 3.285 and 2.141 and 3.031 and 3.789 and 2.995 and 3.1028 and 5.015 and 2.882
[3]; [5]
  CXCL10: 1.514 and 0.251 and 1.066 and 0.167 and 0.5332 and 0.7533 and 1.612 and 0.6702 and 0.5368 and 1.6313 and 0.1436 and 0.6323 and 0.4166 and 0.1288 and 0.6936 and 0.646 and 0.6924 and 0.6022 and 0.5701 and 0.08999
  IFIT1: 0.2868 and 0.437 and 1.363 and 0.3735 and 0.4257 and 0.6696 and 0.8252 and 0.3503 and 0.5958 and 0.5382 and 1.388 and 0.256 and 0.9671 and 0.1288 and 0.6936 and 1.317 and 1.359 and 0.9945 and 0.8122 and 0.05751
  ISG15: 0.9038 and 0.4123 and 1.522 and 0.5454 and 1.252 and 0.967 and 0.791 and 0.6842 and 0.9244 and 0.2949 and 0.1516 and 1.006 and 0.9237 and 0.1709 and 0.7851 and 1.799 and 0.9132 and 0.323 and 0.9506 and 0.1287
  MX1: 0.4428 and 0.9634 and 1.459 and 0.4711 and 0.7459 and 1.024 and 0.9419 and 0.919 and 0.9953 and 1.074 and 1.146 and 0.5685 and 0.9032 and 0.1777 and 0.6324 and 0.9421 and 1.363 and 0.7344 and 1.47 and 0.4028
[3]; unstimulated SSc PBMCs (n = 20), 2 µM, 16 h, relative to AP-5-145
  composite ISG score: reduced the composite ISG score
